Results from US12077503B2, “Substituted cyclic amides and their use as herbicides” (FMC CORPORATION, priority 2015, dated 2024).

Tests used:
Format in all cases: in vivo
rice (Oryra sativa) = assay: Test B flooded paddy test; details: Oryza sativa, 250 g ai/ha, Flood; 0 to 100 scale where 0 is no effect and 100 is complete control; read-out: Rice plant response rating
Outline: (§1)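 Plants at 2-leaf stage flooded to 3 cm above soil, with compounds applied directly to paddy water and that depth maintained. Plants kept in greenhouse 13–15 d. Visual rating versus controls on a 0 (no effect) to 100 (complete control) scale.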

[1] = tested on: ducksalad (Heteranthera limosa); assay: Test B flooded paddy test; details: Heteranthera limosa, 250 g ai/ha, Flood; 0 to 100 scale where 0 is no effect and 100 is complete control; read-out: Ducksalad plant response rating
Outline: as §1

[2] = tested on: sedge, umbrella (small-flower umbrella sedge, Cyperus difformis); assay: Test B flooded paddy test; details: Cyperus difformis, 250 g ai/ha, Flood; 0 to 100 scale where 0 is no effect and 100 is complete control; read-out: Sedge, Umbrella plant response rating
Outline: as §1

[3] = tested on: barnyardgrass (Echinochloa crus-galli); assay: Test B flooded paddy test; details: Echinochloa crus-galli, 250 g ai/ha, Flood; 0 to 100 scale where 0 is no effect and 100 is complete control; read-out: Barnyardgrass plant response rating
Outline: as §1

Kochia (Kochia scoparia) [4] = assay: Test A preemergence; details: Bassia scoparia, pre-emergence, 240 h, 0 to 100 scale where 0 is no effect and 100 is complete control, read-out: Kochia plant response rating
Outline: (§2)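 Seeded soil received test chemicals as a preemergence directed spray, and seedlings at one to two leaves, 2–10 cm tall, received them postemergence, in a non-phytotoxic, surfactant-containing solvent mixture. Pots were held in a greenhouse for approximately 10 d, then rated for injury from 0, no effect, to 100, complete control.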

[5] = tested on: ragweed (common ragweed, Ambrosia elatior); assay: Test A preemergence; details: Ambrosia artemisiifolia, pre-emergence, 240 h, 0 to 100 scale where 0 is no effect and 100 is complete control, read-out: Ragweed plant response rating
Outline: as §2

[6] = tested on: barnyardgrass (Echinochloa crus-galli); assay: Test A preemergence; details: Echinochloa crus-galli, pre-emergence, 240 h, 0 to 100 scale where 0 is no effect and 100 is complete control, read-out: Barnyardgrass plant response rating
Outline: as §2

[7] = tested on: pigweed (Amaranthus retroflexus); assay: Test A preemergence; details: Amaranthus retroflexus, pre-emergence, 240 h, 0 to 100 scale where 0 is no effect and 100 is complete control, read-out: Pigweed plant response rating
[8] = tested on: ryegrass, Italian (Italian ryegrass, Lolium multiflorum); assay: Test A preemergence; details: Lolium multiflorum, pre-emergence, 240 h, 0 to 100 scale where 0 is no effect and 100 is complete control, read-out: Ryegrass, Italian plant response rating
Outline: as §2

[9] = tested on: giant foxtail (Setaria faberii); assay: Test A preemergence; details: Setaria faberi, pre-emergence, 240 h, 0 to 100 scale where 0 is no effect and 100 is complete control, read-out: Foxtail, Giant plant response rating
Outline: as §2

Kochia (Kochia scoparia) [10] = assay: Test A postemergence; details: Bassia scoparia, post-emergence, 240 h, read-out: Kochia plant response rating (0 to 100 scale)
Outline: as §2

[11] = tested on: Galium (catchweed bedstraw, Galium aparine); assay: Test A postemergence; details: Galium, post-emergence, 240 h, read-out: Galium plant response rating (0 to 100 scale)
Outline: as §2

[12] = tested on: ragweed (common ragweed, Ambrosia elatior); assay: Test A postemergence; details: Ambrosia artemisiifolia, post-emergence, 240 h, read-out: Ragweed plant response rating (0 to 100 scale)
Outline: as §2

corn (Zea mays) = assay: Test A postemergence; details: Zea mays, post-emergence, 240 h, read-out: Corn plant response rating (0 to 100 scale)
Outline: as §2

[13] = tested on: barnyardgrass (Echinochloa crus-galli); assay: Test A postemergence; details: Echinochloa crus-galli, post-emergence, 240 h, read-out: Barnyardgrass plant response rating (0 to 100 scale)
Outline: as §2

[14] = tested on: blackgrass (Alopecurus myosuroides); assay: Test A postemergence; details: Alopecurus myosuroides, post-emergence, 240 h, read-out: Blackgrass plant response rating (0 to 100 scale)
Outline: as §2

[15] = tested on: wheat (Triticum aestivum); assay: Test A postemergence; details: Triticum aestivum, post-emergence, 240 h, Postemergence, 31 g ai/ha; 0 is no effect, 100 is complete control; read-out: Wheat plant response rating (0 to 100 scale)
Outline: as §2

[16] = tested on: pigweed (Amaranthus retroflexus); assay: Test A postemergence; details: Amaranthus retroflexus, post-emergence, 240 h, read-out: Pigweed plant response rating (0 to 100 scale)
Outline: as §2

[17] = tested on: ryegrass, Italian (Italian ryegrass, Lolium multiflorum); assay: Test A postemergence; details: Lolium multiflorum, post-emergence, 240 h, read-out: Ryegrass, Italian plant response rating (0 to 100 scale)
Outline: as §2

[18] = tested on: giant foxtail (Setaria faberii); assay: Test A postemergence; details: Setaria faberi, post-emergence, 240 h, read-out: Foxtail, Giant plant response rating (0 to 100 scale)
Outline: as §2

[19] = 125 g ai/ha, preemergence, visual injury rating, approximately 10 d
[20] = 125 g ai/ha, postemergence, visual injury vs untreated controls after approx. 10 d, 0 = no effect, 100 = complete control
[21] = Postemergence, 31 g ai/ha, 0 is no effect, 100 is complete control

CN1C[C@H](c2ccc(F)c(Oc3ccccc3)c2)[C@@H](C(=O)Nc2cccc(F)c2F)C1=O [Compound 1259]
60%: pest or weed control at 125 g/ha [6, 19] | pest or weed control at 31 g/ha [11, 21] | pest or weed control at 125 g/ha [16, 20]
70%: plant injury at 125 g/ha (corn (Zea mays); [20]) | pest or weed control at 125 g/ha [18, 20]
90%: pest or weed control at 125 g/ha [9, 19]
0%: pest or weed control at 250 g/ha (rice (Oryra sativa)) | pest or weed control at 250 g/ha [1] | pest or weed control at 250 g/ha [2] | pest or weed control at 250 g/ha [3] | pest or weed control at 31 g/ha (Kochia (Kochia scoparia) [4]; 31 g ai/ha, Preemergence) | pest or weed control at 125 g/ha (Kochia (Kochia scoparia) [4]; [19]) | pest or weed control at 31 g/ha ([5]; 31 g ai/ha, Preemergence) | pest or weed control at 125 g/ha [5, 19] | pest or weed control at 31 g/ha ([6]; 31 g ai/ha, Preemergence) | pest or weed control at 31 g/ha ([8]; 31 g ai/ha, Preemergence) | pest or weed control at 125 g/ha (Kochia (Kochia scoparia) [10]; [20]) | pest or weed control at 31 g/ha (Kochia (Kochia scoparia) [10]; [21]) | pest or weed control at 125 g/ha [12, 20] | pest or weed control at 31 g/ha [12, 21] | plant injury at 31 g/ha (corn (Zea mays); [21]) | pest or weed control at 125 g/ha [14, 20] | pest or weed control at 31 g/ha [14, 21] | plant injury at 31 g/ha [15] | pest or weed control at 125 g/ha [17, 20] | pest or weed control at 31 g/ha [17, 21]
40%: pest or weed control at 31 g/ha ([9]; 31 g ai/ha, Preemergence) | pest or weed control at 31 g/ha [16, 21]
80%: pest or weed control at 125 g/ha [11, 20] | pest or weed control at 125 g/ha [13, 20]
30%: pest or weed control at 31 g/ha ([7]; 31 g ai/ha, Preemergence) | pest or weed control at 125 g/ha [7, 19] | pest or weed control at 125 g/ha [8, 19] | pest or weed control at 31 g/ha [13, 21] | pest or weed control at 31 g/ha [18, 21]
